The target in this test is WT STING (Homo sapiens, UniProt Q86WV6, H232R). Description: Differential scanning fluorimetry (DSF) with WT STING. As to conditions: thermal shift, truncated human WT STING 0.1 mg/ml, 150 μM CDN; for ΔTm at 150 µM: read-out: DSF ΔTm WT STING. The test is classed as binding. Also noted: truncated human WT STING or AQ STING (amino acid residues 140-343); 8xHis (N, cleaved yes); SUMO (N, cleaved yes); made in house; host or cells: E. coli Rosetta-gami B (DE3). From the text:
Both WT and AQ human STING (G230A-R^293Q) cDNA were amplified by the use of PCR (Phusion® High-Fidelity DNA Polymerase, cat. # M0530S, NEB, Ipswich, USA) using oligonucleotides hSTING140-BamH-For ([…]) (SEQ ID NO:5) and hSTING379-Not-Rev3 ([…]) (SEQ ID NO:6) from pUNOI-hSTING-WT (cat. # punol-hstingwt, InvivoGen, San Diego, USA) and pUNO1-hSTING-HAQ plasmids (punol-hsting-haq, InvivoGen, San Diego, USA). Purified PCR products were cleaved with restriction enzymes BamHI (cat. # R^0136S, NEB, Ipswich, USA) and NotI (cat. # R^0189S, NEB, Ipswich, USA) and cloned into the pSUMO vector linearized with the identical enzymes. Plasmid pSUMO was created by introducing 8-His-SUMO sequence between NdeI and BamHI sites of pHis-parallel2 plasmid (Clontech, Moutain View, USA). pSUMO-STING WT or pSUMO-STING AQ plasmids thus encoded truncated human WT STING or AQ STING (amino acid residues 140-343) with N-terminal 8×His and SUMO tag.
The recombinant WT STING and AQ STING proteins were overexpressed in Rosetta-gami B (DE3) competent cells (cat. #71136-3, Merck Millipore, Billerica, USA). Bacterial pellets were re-suspended in ice-cold lysis buffer containing 50 mmol·l^−1 TrisCl (cat. # T1503, Sigma Aldrich, Czech Republic) pH 8.0, 300 mmol·l^−1 NaCl, 3 mmol·l^−1 (3-mercaptoethanol (cat. # M6250, Sigma Aldrich, Czech Republic), 10% glycerol (cat. #G5516, Sigma Aldrich, Czech Republic) and 20 mmol·l^−1 imidazole (cat. #15513, Sigma Aldrich, Czech Republic) using Dounce homogenizer. DNase I (cat. # D5025, Sigma Aldrich, Czech Republic) and RNase A (cat. # R^6513, Sigma Aldrich, Czech Republic) were added (final concentration 50 μg/ml) together with MgCl2 (final concentration 5 mmol·l^−1) to the homogenate and bacteria were lysed using French Press G-M™ High-Pressure Cell Press Homogenizer (1500 psi, 3 cycles). Lysate was spun 30,000 g for 20 minutes and supernatant was gently stirred with Ni-NTA resin (cat. #745400.25 Macherey-Nagel, Duren, Germany) for 30 minutes. The resin was poured into a chromatography column, washed with 50 ml buffer A (50 mmol·l^−1 TrisCl (pH 8.0), 800 mmol·l^−1 NaCl, 3 mmol·l^−1β-mercaptoethanol; 10% glycerol; 20 mmol·l^−1 imidazole) and 8-His-SUMO tagged STING proteins were eluted with 15 ml buffer A containing 300 mmol·l^−1 imidazole. The eluted proteins were cleaved with recombinant SUMO protease (80 pig/ml of protein solution, cat. #12588018, ThermoFisher, Waltham, USA). The proteins were further purified by size exclusion chromatography using HiLoad 16/60 Superdex 75 (cat. #28989333, GE Healthcare Bio-Sciences, Pittsburgh, USA) in 50 mmol·l^−1 Tris C1 buffer pH 7.4 containing 150 mmol·l^−1 NaCl, and 10% glycerol. Proteins were concentrated with Amicon® Ultra-15 10 K device (cat. # UFC901008, Merck Millipore, Billerica, USA) and flash frozen in liquid N2.
WT and AQ allelic forms of STING protein were diluted to the final concentration 0.1 mg/ml in 100 mmol·l^−1 TrisCl buffer pH 7.4 containing, 150 mmol·l^−1 NaCl, 1:500 SYPRO Orange (cat. # S6650, ThermoFisher, Waltham, USA) and 150 μM CDN or water. 20 μL solutions of the reaction mixtures were pipetted in triplicates into 96 well optical reaction plates and thermal denaturation of samples were performed on real time PCR cycler (LightCycler® 480 Instrument II—Roche, Basel, Switzerland). The first derivative of the thermal denaturation curves was performed to calculate denaturing temperatures of STING-CDN complexes and STING apoproteins. The thermal shift for each CDN was calculated by subtracting the average denaturing temperature of STING apoprotein from the average denaturing temperature of STING CDN complex.
On the technique in general: Differential scanning fluorimetry follows unfolding on heating by fluorescence.

The structures appear in SMILES notation.

The text below walks through data of US20190359645A1, “2'3'-CYCLIC DINUCLEOTIDES COMPRISING CARBOCYCLIC NUCLEOTIDE” (Institute of Organic Chemistry and Biochemistry ASCR, V.V.I., priority 2018, published 2019).

The term ΔTm denotes the change in melting temperature against a reference sample.

WT STING, sequence (Q86WV6 140-343 H232R): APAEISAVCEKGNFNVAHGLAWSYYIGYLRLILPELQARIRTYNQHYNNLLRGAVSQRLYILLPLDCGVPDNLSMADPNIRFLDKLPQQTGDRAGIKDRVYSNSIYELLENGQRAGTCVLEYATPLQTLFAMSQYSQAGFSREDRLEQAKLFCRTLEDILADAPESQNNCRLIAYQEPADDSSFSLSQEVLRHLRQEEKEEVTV

On to `Nc1ncnc2c1ncn2[C@@H]1O[C@@H]2COP(=O)(O)O[C@@H]3[C@@H](F)[C@@H](COP(=O)(O)O[C@H]2[C@H]1O)C[C@H]3n1cnc2c(=O)[nH]cnc21` [Compound 126, (1S,6R,8R,9R,10S,15R,17R,18S)-8-(6-amino-9H-purin-9-yl)-18-fluoro-3,9,12-trihydroxy-17-(6-oxo-6,9-dihydro-1H-purin-9-yl)-2,4,7,11,13-pentaoxa-3λ^5,12λ^5-diphosphatricyclo[13.2.1.0^6,10]octadecane-3,12-dione], for which the ΔTm at 150 µM was 8.4 °C.
Still for that read-out and setting: the value for `Nc1nc2c(ncn2[C@@H]2C[C@@H]3COP(=O)(O)OC4C(O)[C@H](n5cnc6c(S)ncnc65)O[C@@H]4COP(=O)(O)OC2C3O)c(=O)[nH]1` (stereo partly drawn) [Compound 107, (6R,8R,15R,17R)-17-(2-amino-6-oxo-6,9-dihydro-1H-purin-9-yl)-3,9,12,18-tetrahydroxy-8-(6-sulfanyl-9H-purin-9-yl)-2,4,7,11,13-pentaoxa-3λ^5,12λ^5-diphosphatricyclo[13.2.1.0^6,10]octadecane-3,12-dione] was 2.2 °C; that for `Nc1ncnc2c1c(I)cn2[C@@H]1O[C@@H]2COP(=O)(O)OC3C(O)[C@@H](COP(=O)(O)OC2C1O)C[C@H]3n1cnc2c(=O)[nH]cnc21` (stereo partly drawn) [Compound 124, (6R,8R,15R,17R)-8-{4-amino-5-iodo-7H-pyrrolo[2,3-d]pyrimidin-7-yl}-3,9,12,18-tetrahydroxy-17-(6-oxo-6,9-dihydro-1H-purin-9-yl)-2,4,7,11,13-pentaoxa-3λ^5,12λ^5-diphosphatricyclo[13.2.1.0^6,10]octadecane-3,12-dione] was 5.6 °C.
`Nc1ncnc2c1ncn2[C@@H]1O[C@@H]2COP(=O)(O)OC3C(O)[C@@H](COP(=O)(O)OC2C1O)C[C@H]3n1cnc2c(=O)[nH]cnc21` (stereo partly drawn) [Compound 121, (6R,8R,15R,17R)-8-(6-amino-9H-purin-9-yl)-3,9,12,18-tetrahydroxy-17-(6-oxo-6,9-dihydro-1H-purin-9-yl)-2,4,7,11,13-pentaoxa-3λ^5,12λ^5-diphosphatricyclo[13.2.1.0^6,10]octadecane-3,12-dione]: the “DSF ΔTm WT STING” value is 9.4 °C.
As to `Nc1ncc2ncn([C@@H]3O[C@@H]4COP(=O)(O)OC5C(O)[C@@H](COP(=O)(O)OC4C3O)C[C@H]5n3cnc4c(=O)[nH]c(N)nc43)c2n1` (stereo partly drawn) [Compound 106, (6R,8R,15R,17R)-17-(2-amino-6-oxo-6,9-dihydro-1H-purin-9-yl)-8-(2-amino-9H-purin-9-yl)-3,9,12,18-tetrahydroxy-2,4,7,11,13-pentaoxa-3λ^5,12λ^5-diphosphatricyclo[13.2.1.0^6,10]octadecane-3,12-dione], the ΔTm at 150 µM turned out to be 5.5 °C.
Take `Nc1nc2c(ncn2[C@@H]2C[C@@H]3COP(=O)(O)OC4C(O)[C@H](n5cnc6c(N)ncnc65)O[C@@H]4COP(=O)(O)OC2C3O)c(=O)[nH]1` (stereo partly drawn) [Compound 102, (6R,8R,15R,17R)-17-(2-amino-6-oxo-6,9-dihydro-1H-purin-9-yl)-8-(6-amino-9H-purin-9-yl)-3,9,12,18-tetrahydroxy-2,4,7,11,13-pentaoxa-3λ^5,12λ^5-diphosphatricyclo[13.2.1.0^6,10]octadecane-3,12-dione]: the ΔTm at 150 µM is 13.3 °C.
Same read-out and setting: the value for `Nc1nc2c(ncn2[C@@H]2C[C@@H]3COP(=O)(O)OC4C(O)[C@H](n5cnc6c(N)nc(F)nc65)O[C@@H]4COP(=O)(O)OC2C3O)c(=O)[nH]1` (stereo partly drawn) [Compound 103, (6R,8R,15R,17R)-8-(6-amino-2-fluoro-9H-purin-9-yl)-17-(2-amino-6-oxo-6,9-dihydro-1H-purin-9-yl)-3,9,12,18-tetrahydroxy-2,4,7,11,13-pentaoxa-3λ^5,12λ^5-diphosphatricyclo[13.2.1.0^6,10]octadecane-3,12-dione] was 7.9 °C.
For the compound `Nc1ncnc2c1ncn2[C@@H]1O[C@@H]2COP(=O)(S)O[C@@H]3[C@H](F)[C@@H](COP(=O)(S)O[C@H]2[C@H]1F)C[C@H]3n1cnc2c(=O)[nH]cnc21` (single isomer, unassigned) [Compound 128d], the “DSF ΔTm WT STING” value was determined as 13.4 °C.
